Experimental data taken from patent US20120208781A1, “AMINOGLYCOSIDE DOSING REGIMENS” (Achaogen, Inc., priority 2009, published 2012).

Legend:
E. coli = assay: MIC, further Brooklyn patient isolates: E. coli; assay type: cell-based; set-up: unit not given beside the values; settings: E. coli (n = 3071)
Experimental: (§1) Minimum inhibitory concentrations (MIC) were determined by reference Clinical and Laboratory Standards Institute (CLSI) broth microdilution methods per M7-A7 [2006]. Briefly, serial two-fold dilutions of Compound 1 and comparator AGs (together, “the test compounds”) were prepared at 2× concentration in appropriate diluent. The dilutions were mixed in 96-well assay plates with bacterial inoculum. Bacteria were suspended in sterile saline and added to each assay plate to obtain a final concentration of 5.5×10^5 CFU/mL. The plates were incubated at 35° C. for 20 hours in ambient air. […] After incubation, assay plates were read using a microtiter plate reader at 600 nm.
(§2) Further studies analyzed a greater number of unique patient isolates obtained from Brooklyn, N.Y. hospitals (including those species described above). These species included Acinetobacter, E. coli, Enterobacter, Klebsiella, and Pseudomonas.

Enterobacter = assay: MIC, further Brooklyn patient isolates: Enterobacter; assay type: cell-based; set-up: unit not given beside the values; settings: Enterobacter (n = 206)
Experimental: as §1, §2

rat kidney [1] = assay: Rat nephrotoxicity model: kidney histopathology (H&E); assay type: in vivo, Sprague-Dawley rats; settings: rats, 14 d once-daily
Experimental: This rat nephrotoxicity study design used 14 days of once-daily dosing of aminoglycosides in adult Sprague-Dawley rats. Rats were allowed full access to food and water, and aminoglycosides were dosed subcutaneously at 1 mL/kg dosing volume, formulated in water. Nephrotoxicity was assessed by monitoring changes in serum markers of glomerular filtration rate (GFR), namely blood urea nitrogen (BUN) and serum creatinine. Microscopic examination of kidney slices after fixation and hematoxylin and eosin (H&E) staining was also utilized, scoring for tubular dilation, cellular casts, interstitial inflammation, and regenerative changes to the tubules.

rat kidney [2] = assay: Rat nephrotoxicity model: serum markers of GFR (BUN, serum creatinine); assay type: in vivo, Sprague-Dawley rats; settings: dose-response for BUN elevation

| MIC50 (E. coli) | MIC50 (Enterobacter) | Structure (SMILES) | Histopathology score (0 to 5 Scale): Casts (rat kidney [1]; 3 mg/kg) | Histopathology score (0 to 5 Scale): Dilation (rat kidney [1]; 3 mg/kg) | Histopathology score (0 to 5 Scale): Inflammation (rat kidney [1]; 3 mg/kg) | Histopathology score (0 to 5 Scale): Regeneration (rat kidney [1]; 3 mg/kg) | Histopathology score (0 to 5 Scale): Casts (rat kidney [1]; 10 mg/kg) | Histopathology score (0 to 5 Scale): Dilation (rat kidney [1]; 10 mg/kg) | Histopathology score (0 to 5 Scale): Inflammation (rat kidney [1]; 10 mg/kg) | Histopathology score (0 to 5 Scale): Regeneration (rat kidney [1]; 10 mg/kg) | Histopathology score (0 to 5 Scale): Casts (rat kidney [1]; 30 mg/kg) | Histopathology score (0 to 5 Scale): Dilation (rat kidney [1]; 30 mg/kg) | Histopathology score (0 to 5 Scale): Inflammation (rat kidney [1]; 30 mg/kg) | Histopathology score (0 to 5 Scale): Regeneration (rat kidney [1]; 30 mg/kg) | Histopathology score (0 to 5 Scale): Casts (rat kidney [1]; 100 mg/kg) | Histopathology score (0 to 5 Scale): Dilation (rat kidney [1]; 100 mg/kg) | Histopathology score (0 to 5 Scale): Inflammation (rat kidney [1]; 100 mg/kg) | Histopathology score (0 to 5 Scale): Regeneration (rat kidney [1]; 100 mg/kg) | apparent relative nephrotoxicity (ranking) (rat kidney [2]) |
| --- | --- | --- | --- | --- | --- | --- | --- | --- | --- | --- | --- | --- | --- | --- | --- | --- | --- | --- | --- |
| ≦0.25 | ≦0.25 | CO/N=C(\C(=O)N[C@@H]1C(=O)N2C(C(=O)O)=C(CSc3nc(=O)c(O)nn3C)CS[C@H]12)c1csc(N)n1 [CRO] | – | – | – | – | – | – | – | – | – | – | – | – | – | – | – | – | – |
| – | – | CN[C@@H]1[C@@H](O[C@H]2O[C@H](CO)[C@@H](N)[C@H](O)[C@H]2O)OC2C[C@@H](N)[C@@H](O[C@H]3[C@H](O)[C@@H](O)[C@H](N)C[C@@H]3N)OC2[C@@H]1O (stereo partly shown) [Apramycin, apramycin] | 0 +/− 0 | 0 +/− 0 | 0.4 +/− 0.5 | 0 +/− 0 | 0 +/− 0 | 0 +/− 0 | 0.4 +/− 0.5 | 0.6 +/− 1.3 | 0 +/− 0 | 0 +/− 0 | 0.6 +/− 0.5 | 0.6 +/− 0.5 | 1.4 +/− 0.5 | 0.6 +/− 0.5 | 2.4 +/− 0.5 | 2.4 +/− 0.5 | Neomycin≈Gentamicin>Tobramycin>Apramycin≈Paromomycin>Amikacin |
